Key:
[1] = molecular target: T1, bay thioesterase enzyme purified from developing seeds (Umbellularia californica, UniProt Q41635); assay: Substrate analysis of bay thioesterase purified from developing seeds; assay type: biochemical; conditions: enzyme purified from developing seeds as in Example 2
T1 construct: The cotyledons from such seeds are dissected from the other seed parts and stored frozen at -70°; This comprises the source tissue for enzyme extraction; from tissue; host or cells: immature seed cotyledons of Umbellularia californica
T1 sequence (Q41635 84-382): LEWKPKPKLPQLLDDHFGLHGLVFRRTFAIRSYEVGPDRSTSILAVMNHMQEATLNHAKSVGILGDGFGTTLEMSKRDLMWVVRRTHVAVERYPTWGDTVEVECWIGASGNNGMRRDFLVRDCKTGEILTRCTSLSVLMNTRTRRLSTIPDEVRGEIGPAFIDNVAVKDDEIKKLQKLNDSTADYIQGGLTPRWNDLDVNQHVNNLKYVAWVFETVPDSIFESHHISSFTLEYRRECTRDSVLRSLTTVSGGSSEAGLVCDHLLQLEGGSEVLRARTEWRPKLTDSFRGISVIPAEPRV
Procedure: (§1) To assay for C12 thioesterase activity the following mixture is incubated at 30° for 30 min: "buffer" comprising 7mM KH2PO4-KOH pH 8, 20% v/v glycerol, 1mM dithiothreitol (DTT), 0.1% v/v Triton X100; sample to be tested for activity in the same or similar buffer as the "extraction buffer" described in Example 2; and 5µl of ^14C-radiolabeled lauroyl-ACP substrate for a total volume of 100µl and final lauroyl-ACP concentration of 0.5µM. Lauroyl-ACP substrate is prepared according to the method of Rock et al (Methods in Enzymology (1981) 72:397-403), using ACP prepared from Escherichia coli by the method of Rock and Cronan (Methods in Enzymology (1981) 71:341-351). The laurate is radiolabeled in the carboxylate group at a specific radioactivity of 50-60µCi/µmol.
(§2) The reaction is stopped by adding 0.5ml cold (0°) 10% v/v acetic acid. The fatty acid product of the hydrolytic enzyme action is extracted away from the unhydrolyzed substrate by adding 1ml diethyl ether and mixing vigorously. After settling for a few minutes the upper ether layer is transferred to 5ml scintillation fluid for determination of radioactivity by liquid scintillation spectrometry. Additional ether extractions may be performed to recover remaining traces of the reaction product for more accurate quantitation of the enzyme activity if desired. The amount of ether-extracted radioactivity is a direct measure of C12-preferring acyl-ACP thioesterase activity, provided the amount of enzyme is not sufficient to hydrolyze more than about 25% of the substrate. With greater activity than this the relationship between radioactivity in the ether layer and the quantity of enzyme becomes markedly nonlinear. The enzyme preparation must then be diluted appropriately to bring the activity into the linear range of the assay.
The dialyzed material is then applied to a column of immobilized ACP (2.5cm diameter x 10.5cm bed height). This column is manufactured by coupling Escherichia coli ACP to cyanogen bromide-activated Sepharose 4B according to instructions supplied by the manufacturer of this column packing (Pharmacia Inc., Piscataway, NJ). The E. coli ACP is prepared as referenced in Example 1. Before use the column is equilibrated with ACP1 buffer. The dialyzed material from the cation exchange column is applied at 1-1.3ml/min, and fractions of 8ml volume are collected throughout the procedure. Fractions are assayed for C12-preferring acyl-ACP thioesterase activity, and for total protein content using a Cobmassie Blue assay method (Bio-Rad Inc., Richmond, CA, catalog no. 500-0001). A substantial amount of protein washes through the column without binding. Almost all of the C12-preferring acyl-ACP thioesterase activity binds. […]

[2] = test system: control induced E. coli lysate; assay: Acyl-ACP hydrolysis by control E. coli lysate (bay thioesterase gene in opposite orientation); assay type: biochemical; conditions: Dilution 1/4000, one hour induction with 0.1mM IPTG
Procedure: as §1, §2
The resulting construct, pCGN3823, and a control Bluescribe construct having the bay thioesterase gene inserted in the opposite orientation are transformed into E. coli. The E. coli cells are grown at 37°C in liquid medium and expression from the lac promoter is induced by addition of IPTG to a final concentration of 0.1mM IPTG. Following one hour of induction, cells are harvested, lysed and assayed as described above for the truncated bay thioesterase.

| Substance | Hydrolysis Activity (mean cpm in ether extract) [1] | Hydrolysis Activity (mean cpm in ether extract) [2] |
| --- | --- | --- |
| 14:0-ACP | 69 cpm | 0 cpm |
| decanoyl-ACP [10:0-ACP] | 0 cpm | 0 cpm |
| lauroyl-ACP [12:0-ACP] | 1261 cpm | 0 cpm |
| 16:0-ACP | 12 cpm | 13 cpm |

— patent EP1298214A2, “Plant thioesterases” (Calgene LLC, priority 1990, dated 1991)
